Twelve compounds from patent US20260274814A1, “THIENYL COMPOUNDS FOR THE TREATMENT OF A CENTRAL NERVOUS SYSTEM DISEASE OR DISORDER” (Coreterra Therapeutics, Inc., priority 2023, published 2026) can be followed below.

Structures can show the parent of a compound that is named as a salt. Where two headings read alike, the source gives them in different places.

For this experiment, the system named is mice. The experiment can be described thus: Neuropharmacological Assay (SmartCube): automated behavioral signature of compound-treated mice compared with a database of reference drug classes. It counts as in vivo. The conditions noted are these: for minimal effective dose: Mus musculus, ip. An outline of the steps: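 Mice dosed i.p. 15 min before SmartCube testing, with compound in N-methyl-2-pyrrolidone/polyethylene glycol/propylene glycol. Video-captured behaviour is compared with a reference-drug signature database to give per-class probabilities, reported at 3.0 mg/kg. MED, from doses usually 0.3–10 mg/kg, is the lowest dose giving ≥45% total activity.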

[1] abbreviates: dose having 45% or more total activity in SmartCube, i.p., if only one dose was tested, that dose is shown.
Setting [2] is: probability that activity matches this class of agents, 3.0 mg/kg i.p., 15 min before test.
The mark [3] stands for this setting: probability that activity matches this class of agents, 3.0 mg/kg i.p., 15 min before test, 3 mg/kg.
The mark [4] stands for this setting: SmartCube probability class, 3.0 mg/kg dose, i.p. 15 min before the behavioral test.
The mark [5] stands for this setting: dose having 45% or more total activity in SmartCube, i.p., if only one dose was tested, that dose is shown, hydrochloride.
Setting [6] is: probability that activity matches this class of agents, 3.0 mg/kg i.p., 15 min before test, hydrochloride, 3 mg/kg.
The mark [7] stands for this setting: dose having 45% or more total activity in SmartCube, i.p., if only one dose was tested, that dose is shown, read-out: MED (minimal effective dose).
[8] abbreviates: SmartCube class probability, 3.0 mg/kg i.p., 15 min before test.
The mark [9] stands for this setting: SmartCube class probability, 3.0 mg/kg i.p., 15 min before test, hydrochloride, 3 mg/kg.
[10] abbreviates: minimal effective dose: dose having 45% or more total activity in SmartCube, i.p., if only one dose tested, that dose is shown, read-out: MED.

For the compound `CNC1CCc2c(C(F)(F)F)sc(C)c2C1` (single isomer, unassigned; enantiomer 2) [Compound 107, N, 3-dimethyl-1-(trifluoromethyl)-4,5,6,7-tetrahydro-2-benzothiophen-5-amine hydrochloride enantiomer 2], the “MED (minimal effective dose)” value under setting [1] came out at 10 mpk. For the same compound, under setting [2], the AG result is given as “ND (^ <4%)”, the AN result is on record as “ND (^ <4%)”, the AP result is recorded as “ND (^ <4%)” and the AX entry is recorded as “ND (^ <4%)”. Under setting [2], the CE result is “ND (^ <4%)”, the HL result is “ND (^ <4%)”, the MS entry is reported as “ND (^ <4%)” and the PS entry is “ND (^ <4%)”. Under setting [2], the SH entry was “ND (^ <4%)”. For the same compound, under setting [3], the AD result is on record as “ND (^ <4%)” and the UK entry is “ND (^ <4%)”.
`NC1CCCc2ccsc2C1` (centres unmarked) [Compound 323, 5,6,7,8-tetrahydro-4H-cyclohepta[b]thiophen-7-amine hydrochloride]: under “minimal effective dose: dose having 45% or more total activity in SmartCube, i.p., if only one dose was tested, that dose is shown, read-out: MED”, the minimal effective dose is 3 mg/kg. Under setting [4], the AD entry is “++ (≥24%)”, the AG entry was “ND (^ <4%)”, the AN entry is reported as “ND (^ <4%)” and the AP entry was “++ (≥24%)”. Under setting [4], the AX entry is reported as “+ (≥4%)”, the CE result is “ND (^ <4%)”, the HL result is given as “ND (^ <4%)” and the MS entry was “ND (^ <4%)”. Besides, under setting [4], the PS entry is reported as “ND (^ <4%)”, the SH entry is reported as “ND (^ <4%)” and the UK result is “+ (≥4%)”.
As for `CCc1scc2c1CCC(NC)C2` (single isomer, unassigned) [Compound 113, 1-ethyl-N-methyl-4,5,6,7-tetrahydro-2-benzothiophen-5-amine hydrochloride], the “MED (minimal effective dose)” value under setting [5] came out at 0.3 mpk. For the same compound, under setting [2], the AG entry was “ND (^ <4%)”, the AN entry is listed as “ND (^ <4%)”, the AX entry is reported as “ND (^ <4%)” and the CE result is reported as “ND (^ <4%)”. Further, under setting [2], the HL entry is “ND (^ <4%)”, the MS entry is “ND (^ <4%)”, the PS entry is reported as “ND (^ <4%)” and the SH result was “ND (^ <4%)”. Also, under setting [2], the UK entry is “ND (^ <4%)”. Under setting [6], the AD entry is on record as “+ (≥4%)” and the AP result is on record as “++++ (≥74%)”.
As to `CNC1CCc2c(C(F)(F)F)sc(C)c2C1` (single isomer, unassigned; enantiomer 1) [Compound 106, N, 3-dimethyl-1-(trifluoromethyl)-4,5,6,7-tetrahydro-2-benzothiophen-5-amine hydrochloride enantiomer 1], the “MED (minimal effective dose)” value under setting [1] is 3 mpk. Under setting [2], the AG entry is recorded as “ND (^ <4%)”, the AN result is listed as “ND (^ <4%)”, the AP result is “ND (^ <4%)” and the AX entry is on record as “ND (^ <4%)”. Under setting [2], the CE entry is “ND (^ <4%)”, the HL result was “ND (^ <4%)”, the MS entry is on record as “ND (^ <4%)” and the PS result is recorded as “ND (^ <4%)”. Also, the SH result under setting [2] is “ND (^ <4%)”. Besides, under setting [3], the AD entry is “+ (≥4%)” and the UK result is given as “++ (≥24%)”.
In the case of `Cc1sc2c(c1C)CCC(N)C2` (single isomer, unassigned) [Compound 67, 2,3-dimethyl-4,5,6,7-tetrahydrobenzothiophen-6-amine hydrochloride], under setting [7], the minimal effective dose was found to be 3 mg/kg. Further, under setting [2], the AG result is listed as “ND (^ <4%)”, the AN result is “ND (^ <4%)”, the AP entry was “ND (^ <4%)” and the AX entry was “ND (^ <4%)”. For the same compound, under setting [2], the CE entry is recorded as “ND (^ <4%)”, the MS result is “ND (^ <4%)”, the PS entry is “ND (^ <4%)” and the SH result is “ND (^ <4%)”. Besides, the UK result under setting [2] is on record as “ND (^ <4%)”. Moreover, under setting [6], the AD result was “+++ (≥49%)” and the HL entry is on record as “ND (^ <4%)”.
As to `CCc1csc2c1CC(NC)CC2` (single isomer, unassigned) [Compound 252, 3-ethyl-N-methyl-4,5,6,7-tetrahydrobenzothiophen-5-amine hydrochloride], under setting [8], the AD entry was “ND (^ <4%)”, the AG result is on record as “ND (^ <4%)”, the AN result is on record as “ND (^ <4%)” and the AX entry is “ND (^ <4%)”. Further, under setting [8], the HL entry is “ND (^ <4%)”, the MS result is recorded as “ND (^ <4%)” and the SH result was “ND (^ <4%)”. Besides, under setting [9], the AP entry is “+ (≥4%)”, the CE result is reported as “ND (^ <4%)”, the PS entry is on record as “ND (^ <4%)” and the UK result is recorded as “+++ (≥49%)”. For the setting “minimal effective dose: dose having 45% or more total activity in SmartCube, i.p., if only one dose tested, that dose is shown, hydrochloride”, this compound displayed an MED of 3 mpk.
On to `CNC1CCc2c(Cl)sc(Cl)c2C1` (single isomer, unassigned) [Compound 60, 1,3-dichloro-N-methyl-4,5,6,7-tetrahydro-2-benzothiophen-5-amine hydrochloride], for which, under setting [1], the “MED (minimal effective dose)” value is 3.0 mpk. In addition, under setting [2], the AD result was “ND (^ <4%)”, the AG entry is “ND (^ <4%)”, the AN entry is on record as “ND (^ <4%)” and the CE entry is “ND (^ <4%)”. Moreover, under setting [2], the HL entry is given as “ND (^ <4%)”, the MS result is “ND (^ <4%)”, the PS entry is reported as “ND (^ <4%)” and the SH entry is “ND (^ <4%)”. Under setting [2], the UK result was “ND (^ <4%)”. Besides, under setting [6], the AP entry is listed as “+ (≥4%)” and the AX result was “+++ (≥49%)”.
Regarding `CC1(N)CCc2ccsc2C1` (single isomer, unassigned) [Compound 111, 6-methyl-5,7-dihydro-4H-benzothiophen-6-amine hydrochloride], the minimal effective dose under setting [7] turned out to be 3 mg/kg. Moreover, under setting [2], the AG entry is “ND (^ <4%)”, the AN entry is reported as “ND (^ <4%)”, the AP result is reported as “ND (^ <4%)” and the CE result is reported as “ND (^ <4%)”. For the same compound, under setting [2], the HL entry is “ND (^ <4%)”, the MS result is reported as “ND (^ <4%)”, the SH result is listed as “ND (^ <4%)” and the UK result is listed as “ND (^ <4%)”. Also, under setting [6], the AD entry was “++ (≥24%)”, the AX entry is reported as “++ (≥24%)” and the PS result is reported as “+ (≥4%)”.
In the case of `CNC1CCc2ccsc2C1.Cl` (single isomer, unassigned) [Compound 9, N-methyl-4,5,6,7-tetrahydrobenzothiophen-6-amine hydrochloride], under setting [5], the “MED (minimal effective dose)” value was 0.1 mpk. Further, under setting [2], the AD entry is recorded as “++ (≥24%)”, the AG entry is listed as “ND (^ <4%)”, the AN entry is given as “ND (^ <4%)” and the AP entry is “++ (≥24%)”. Under setting [2], the MS result is “ND (^ <4%)” and the UK result is on record as “ND (^ <4%)”. Besides, under setting [6], the AX result was “+ (≥4%)”, the CE result is reported as “+ (≥4%)”, the HL entry is recorded as “+ (≥4%)” and the PS result is recorded as “+ (≥4%)”.
As for `NC1CCc2scc(C3CC3)c2C1` (centres unmarked) [Compound 205, 3-cyclopropyl-4,5,6,7-tetrahydrobenzothiophen-5-amine hydrochloride], the minimal effective dose under setting [10] was over 3 mg/kg. For the same compound, under setting [8], the AD result is on record as “ND (^ <4%)”, the AG result was “ND (^ <4%)”, the AN entry is “ND (^ <4%)” and the AP entry is reported as “ND (^ <4%)”. Moreover, under setting [8], the AX result is “ND (^ <4%)”, the CE entry is listed as “ND (^ <4%)”, the HL result is “ND (^ <4%)” and the MS entry is “ND (^ <4%)”. Further, under setting [8], the PS entry is on record as “ND (^ <4%)”, the SH result is given as “ND (^ <4%)” and the UK entry was “++ (≥24%)”.
`CNC1(C)CCc2scc(F)c2C1` (centres unmarked) [Compound 182, 3-fluoro-N, 5-dimethyl-6,7-dihydro-4H-benzothiophen-5-amine hydrochloride]: the minimal effective dose under setting [10] stood at 3 mg/kg. Under setting [8], the AD entry is “ND (^ <4%)”, the AG entry is “ND (^ <4%)”, the AN entry is recorded as “ND (^ <4%)” and the AP result is “ND (^ <4%)”. Under setting [8], the AX entry is “ND (^ <4%)”, the CE result was “ND (^ <4%)”, the HL result is “ND (^ <4%)” and the MS result was “ND (^ <4%)”. In addition, under setting [8], the PS entry is “+ (≥4%)”, the SH entry was “+ (≥4%)” and the UK result is recorded as “++ (≥24%)”.
For `CNC1CCc2c(sc(C(F)(F)F)c2C)C1` (centres unmarked) [Compound 91, N, 3-dimethyl-2-(trifluoromethyl)-4,5,6,7-tetrahydrobenzothiophen-6-amine hydrochloride], under setting [7], the minimal effective dose is over 3 mg/kg. Also, under setting [2], the AD entry is on record as “ND (^ <4%)”, the AG entry is “ND (^ <4%)”, the AN result is “ND (^ <4%)” and the AP result is on record as “ND (^ <4%)”. Moreover, under setting [2], the AX entry is reported as “ND (^ <4%)”, the CE result is reported as “ND (^ <4%)”, the HL entry was “ND (^ <4%)” and the MS entry is reported as “ND (^ <4%)”. Moreover, under setting [2], the PS entry is “ND (^ <4%)”, the SH result was “ND (^ <4%)” and the UK entry is reported as “++ (≥24%)”.
